Series [1] in a line: Cytotoxicity against human THP1 cells assessed as cell viability at 10 ug/ml after 24 hrs by CCK-8 assay. In kind it is cell-based. As to conditions: THP-1 cells, read-out: Activity. (In general: Tetrazolium assays rely on reduction of a dye to a coloured formazan, in cell work by metabolically active cells.)
For series [2], the system named is THP-1. The series can be described thus: Antiinflammatory activity in LPS-stimulated human THP1 cells assessed as inhibition of IL-6 release at 10 ug/ml after 24 hrs by ELISA relative to control. Type of series: functional. As to conditions: THP-1, 24 h. On the technique in general: An ELISA detects its analyte on a solid surface through an enzyme-linked reagent.

The test system of series [3] is THP-1. The series can be described thus: Antiinflammatory activity in LPS-stimulated human THP1 cells assessed as inhibition of TNFalpha release at 10 ug/ml after 24 hrs by ELISA relative to control. As to conditions: THP-1, 24 h. Type of series: functional.
Series [4] can be described thus: Cytotoxicity against human THP1 cells assessed as cell viability at 1 ug/ml after 24 hrs by CCK-8 assay. As to conditions: THP-1 cells.
The subject of series [5] is THP-1. The series can be described thus: Antiinflammatory activity in LPS-stimulated human THP1 cells assessed as inhibition of IL-6 release at 1 ug/ml after 24 hrs by ELISA relative to control. To be noted: THP-1, 24 h. Type of series: functional.
Series [6] has as its system THP-1. The series can be described thus: Antiinflammatory activity in LPS-stimulated human THP1 cells assessed as inhibition of TNFalpha release at 1 ug/ml after 24 hrs by ELISA relative to control. In kind it is functional. As to conditions: THP-1, 24 h.

From ChEMBL document CHEMBL2424627, “Synthesis of novel bioactive pyrazolothiazoles” (Med Chem Res, 2013) come the findings set out here.

By inhibition is commonly meant the relative decrease from the control value, in per cent. Take `CCOC(=O)c1cn(-c2ccc(Cl)cc2)nc1-c1sc(N(C)c2ccccc2)nc1-c1ccccc1`: the viability at 24 h, 10 ug/ml in series [1] was 23%. In addition, the inhibition at 10 µg/mL stood at 51% in the series with THP-1 [2] and 11% in the series with THP-1 [3].

Turning to `CCOC(=O)c1cn(-c2ccc([N+](=O)[O-])cc2[N+](=O)[O-])nc1-c1sc(N(C)c2ccccc2)nc1-c1ccccc1`, the viability at 24 h, 10 ug/ml in series [1] was found to be 17%. The inhibition at 10 µg/mL with THP-1 [2] came to 52%; in the series on THP-1 [3] it was 5%.

On to `CCOC(=O)c1c[nH]nc1-c1sc(N(CC)c2ccccc2)nc1-c1ccccc1`, for which the viability at 24 h, 10 ug/ml in series [1] worked out at 39%. Besides, the inhibition at 10 µg/mL was determined as 56% in the series with THP-1 [2] and 14% in the series with THP-1 [3].

`CCOC(=O)c1cn(-c2ccccc2)nc1-c1sc(N(CC)c2ccccc2)nc1-c1ccccc1`: the viability at 24 h, 10 ug/ml in series [1] amounted to 23%. The results for the inhibition at 10 µg/mL in the series with THP-1 [2] and with THP-1 [3] were 47% and 0%, respectively.

Regarding `CCOC(=O)c1cn(-c2ccc(F)cc2)nc1-c1sc(N(CC)c2ccccc2)nc1-c1ccccc1`, the viability at 24 h, 10 ug/ml in series [1] was 22%. The inhibition at 10 µg/mL in the series on THP-1 [2] is 48%; in the series on THP-1 [3], 0%.

Consider `CCOC(=O)c1cn(-c2ccc(Cl)cc2)nc1-c1sc(N(CC)c2ccccc2)nc1-c1ccccc1`, for which, in series [1], the viability at 24 h, 10 ug/ml is 29%. Further, the inhibition at 10 µg/mL was determined as 58% in the series with THP-1 [2] and 2% in the series with THP-1 [3].

Regarding `CCOC(=O)c1cn(-c2ccc([N+](=O)[O-])cc2[N+](=O)[O-])nc1-c1sc(N(CC)c2ccccc2)nc1-c1ccccc1`, the viability at 24 h, 10 ug/ml in series [1] was found to be 35%. Besides, the inhibition at 10 µg/mL was 73% with THP-1 [2] and 0% with THP-1 [3].

Regarding `CCOC(=O)c1c[nH]nc1-c1sc(N(Cc2ccccc2)c2ccccc2)nc1-c1ccccc1`, the viability at 24 h, 10 ug/ml in series [1] stood at 23%. The inhibition at 10 µg/mL in the series with THP-1 [2] was determined as 78%; in the series with THP-1 [3] it was 13%.

With `CCOC(=O)c1cn(-c2ccccc2)nc1-c1sc(N(Cc2ccccc2)c2ccccc2)nc1-c1ccccc1`, the viability at 24 h, 10 ug/ml in series [1] stood at 21%. In addition, the inhibition at 10 µg/mL in the series on THP-1 [2] stood at 53%; in the series on THP-1 [3], 12%.

Consider `CCOC(=O)c1cn(-c2ccc(F)cc2)nc1-c1sc(N(Cc2ccccc2)c2ccccc2)nc1-c1ccccc1`, for which, in series [1], the viability at 24 h, 10 ug/ml was found to be 10%. Besides, the inhibition at 10 µg/mL in the series on THP-1 [2] stood at 46%; in the series with THP-1 [3] it was 16%.

For `CCOC(=O)c1cn(-c2ccc(Cl)cc2)nc1-c1sc(N(Cc2ccccc2)c2ccccc2)nc1-c1ccccc1`, the viability at 24 h, 10 ug/ml in series [1] was found to be 2%. Also, the inhibition at 10 µg/mL came to 20% in the series with THP-1 [2] and 7% in the series on THP-1 [3].

For `CCOC(=O)c1c[nH]nc1-c1sc(N(C)c2ccccc2)nc1-c1ccccc1`, the viability at 24 h, 10 ug/ml in series [1] was determined as 26%. Besides, the figures for the inhibition at 10 µg/mL in the series on THP-1 [2] and with THP-1 [3] were 71% and 5%, respectively.

With `CCOC(=O)c1cn(-c2ccccc2)nc1-c1sc(N(C)c2ccccc2)nc1-c1ccccc1`, the viability at 24 h, 10 ug/ml in series [1] was found to be 25%. Besides, the figures for the inhibition at 10 µg/mL in the series on THP-1 [2] and in the series on THP-1 [3] were 52% and 0%, respectively.

Take `CCOC(=O)c1cn(-c2ccc(F)cc2)nc1-c1sc(N(C)c2ccccc2)nc1-c1ccccc1`: the viability at 24 h, 10 ug/ml in series [1] was 33%. Moreover, the inhibition at 10 µg/mL with THP-1 [2] turned out to be 61%; in the series with THP-1 [3], 4%.

`C[C@@H]1C[C@H]2[C@@H]3CCC4=CC(=O)C=C[C@]4(C)[C@@]3(F)[C@@H](O)C[C@]2(C)[C@@]1(O)C(=O)CO` [DEXAMETHASONE]: in series [4], the viability at 24 h, 1 ug/ml was 0%. Moreover, the inhibition at 1 µg/mL stood at 85% in the series with THP-1 [5] and 72% with THP-1 [6].
